Assays:
Settings in all cases: route intragastric
[1] = system: Mus musculus; assay: Antimutagenic activity in Albino mouse liver assessed as DNA level per gram of tissue at 14.16 mg/kg administered intragastrically for 1 week; assay type: functional
[2] = system: Mus musculus; assay: Antimutagenic activity against cyclophosphamide-induced mutagenicity in mouse brain assessed as cholinesterase activity per microgram of tissue at 14.16 mg/kg administered intragastrically for 1 week; assay type: functional
[3] = system: Mus musculus; assay: Antimutagenic activity against cyclophosphamide-induced mutagenicity in Albino mouse kidney assessed as DNA level per gram of tissue at 14.16 mg/kg administered intragastrically for 1 week; assay type: functional
[4] = system: Mus musculus; assay: Antimutagenic activity against cyclophosphamide-induced mutagenicity in Albino mouse brain assessed as DNA level per gram of tissue at 14.16 mg/kg administered intragastrically for 1 week; assay type: functional
[5] = system: Mus musculus; assay: Antimutagenic activity in Albino mouse brain assessed as RNA level per gram of tissue at 14.16 mg/kg administered intragastrically for 1 week; assay type: functional
[6] = system: Mus musculus; assay: Antimutagenic activity against cyclophosphamide-induced mutagenicity in Albino mouse brain assessed as RNA level per gram of tissue at 14.16 mg/kg administered intragastrically for 1 week; assay type: functional
[7] = system: Mus musculus; assay: Antimutagenic activity in Albino mouse testes assessed as DNA level per gram of tissue at 14.16 mg/kg administered intragastrically for 1 week; assay type: functional, Testis
[8] = system: Mus musculus; assay: Antimutagenic activity against cyclophosphamide-induced mutagenicity in Albino mouse liver assessed as DNA level per gram of tissue at 14.16 mg/kg administered intragastrically for 1 week; assay type: functional
[9] = system: Mus musculus; assay: Antimutagenic activity against cyclophosphamide-induced mutagenicity in Albino mouse liver assessed as RNA level per gram of tissue at 14.16 mg/kg administered intragastrically for 1 week; assay type: functional
[10] = system: Mus musculus; assay: Antimutagenic activity against cyclophosphamide-induced mutagenicity in Albino mouse testes assessed as DNA level per gram of tissue at 14.16 mg/kg administered intragastrically for 1 week; assay type: functional, Testis
[11] = system: Mus musculus; assay: Antimutagenic activity against cyclophosphamide-induced mutagenicity in mouse kidney assessed as protein level per gram of tissue at 14.16 mg/kg administered intragastrically for 1 week; assay type: functional
[12] = system: Mus musculus; assay: Antimutagenic activity in Albino mouse kidney assessed as DNA level per gram of tissue at 14.16 mg/kg administered intragastrically for 1 week; assay type: functional
[13] = system: Mus musculus; assay: Antimutagenic activity against cyclophosphamide-induced mutagenicity in mouse brain assessed as protein level per gram of tissue at 14.16 mg/kg administered intragastrically for 1 week; assay type: functional
[14] = system: Mus musculus; assay: Antimutagenic activity against cyclophosphamide-induced mutagenicity in Albino mouse kidney assessed as RNA level per gram of tissue at 14.16 mg/kg administered intragastrically for 1 week; assay type: functional
[15] = system: Mus musculus; assay: Antimutagenic activity in Albino mouse brain assessed as DNA level per gram of tissue at 14.16 mg/kg administered intragastrically for 1 week; assay type: functional
[16] = system: Mus musculus; assay: Antimutagenic activity in mouse brain assessed as peroxidase activity per microgram of tissue at 14.16 mg/kg administered intragastrically for 1 week; assay type: functional
[17] = system: Mus musculus; assay: Inhibition of cyclophosphamide-induced increase in micronuclei/polychromatic erythrocytes count in mouse at 18.38 mg/kg administered intragastrically for 1 week by micronuclei assay; assay type: functional; set-up: scale not given: the % may be the effect or the level left
[18] = system: Mus musculus; assay: Antimutagenic activity in Albino mouse kidney assessed as RNA level per gram of tissue at 14.16 mg/kg administered intragastrically for 1 week; assay type: functional
[19] = system: Mus musculus; assay: Antimutagenic activity against cyclophosphamide-induced mutagenicity in mouse testes assessed as protein level per gram of tissue at 14.16 mg/kg administered intragastrically for 1 week; assay type: functional, Testis
[20] = system: Mus musculus; assay: Antimutagenic activity in Albino mouse liver assessed as RNA level per gram of tissue at 14.16 mg/kg administered intragastrically for 1 week; assay type: functional
[21] = system: Mus musculus; assay: Antimutagenic activity in mouse brain assessed as cholinesterase activity per microgram of tissue at 14.16 mg/kg administered intragastrically for 1 week; assay type: functional
[22] = system: Mus musculus; assay: Antimutagenic activity in mouse kidney assessed as protein level per gram of tissue at 14.16 mg/kg administered intragastrically for 1 week; assay type: functional
[23] = system: Mus musculus; assay: Antimutagenic activity against cyclophosphamide-induced mutagenicity in Albino mouse testes assessed as RNA level per gram of tissue at 14.16 mg/kg administered intragastrically for 1 week; assay type: functional, Testis
[24] = system: Mus musculus; assay: Antimutagenic activity against cyclophosphamide-induced mutagenicity in mouse brain assessed as peroxidase activity per microgram of tissue at 14.16 mg/kg administered intragastrically for 1 week; assay type: functional
[25] = system: Mus musculus; assay: Antimutagenic activity in mouse brain assessed as protein level per gram of tissue at 14.16 mg/kg administered intragastrically for 1 week; assay type: functional
[26] = system: Mus musculus; assay: Antimutagenic activity in Albino mouse testes assessed as RNA level per gram of tissue at 14.16 mg/kg administered intragastrically for 1 week; assay type: functional, Testis
[27] = system: Mus musculus; assay: Antimutagenic activity in mouse liver assessed as protein level per gram of tissue at 14.16 mg/kg administered intragastrically for 1 week; assay type: functional

COc1ccc2c(c1)c(CCNC(C)=O)c1sc(CC#N)nn12
Activity [1]: 0.27 mg | Activity [2]: 2.73 U | Activity [3]: 0.35 mg | Activity [4]: 0.21 mg | Activity [5]: 0.19 mg | Activity [6]: 0.16 mg | Activity [7]: 0.32 mg | Activity [8]: 0.25 mg | Activity [9]: 0.34 mg | Activity [10]: 0.28 mg | Activity [11]: 4.94 g | Activity [12]: 0.28 mg | Activity [13]: 2.71 g | Activity [14]: 0.22 mg | Activity [15]: 0.33 mg | Activity [16]: 1.06 U/min | Activity [17]: 28% | Activity [18]: 0.23 mg | Activity [19]: 3.49 g | Activity [20]: 0.3 mg | Activity [21]: 3.3 U | Activity [22]: 7.87 g | Activity [23]: 0.19 mg | Activity [24]: 1.24 U/min | Activity [25]: 2.98 g | Activity [26]: 0.21 mg | Activity [27]: 9.95 g

Reference: ChEMBL document CHEMBL1149819, “Synthesis and in vivo anti-mutagenic activity of novel melatonin derivatives” (2008)
